Each structure is given as a SMILES string.

Data set [1] concerns pulmonary artery pressure. The note with it: in vivo studies; cited from earlier work.
For data set [2] the following is noted: daily dose of 200 mg; cited from earlier work.
Another data set deals with liver cells. Put plainly: in vitro experiments in liver cells, nucleotide status. It is filed as cell-based. The note with it: incubation with increasing concentrations.

Consider `CC(=O)N[C@@H](CS)C(=O)O` [NAC, N-acetyl cysteine], for which the “endotoxin-induced rise in pulmonary artery pressure” value in data set [1] was “attenuates”.

Consider `COC1=C(OC)C(=O)C(C/C=C(\C)CC/C=C(\C)CC/C=C(\C)CC/C=C(\C)CC/C=C(\C)CC/C=C(\C)CC/C=C(\C)CC/C=C(\C)CC/C=C(\C)CCC=C(C)C)=C(C)C1=O` [CoQ10, Coenzyme Q10], for which the “increase in plasma CoQ10 levels” value in data set [2] is reported as “more than six-fold increase”.

In the case of `Nc1nc2ncc(CNc3ccc(C(=O)N[C@@H](CCC(=O)O)C(=O)O)cc3)nc2c(=O)[nH]1` [folic acid], the nucleotide status result in the data set on liver cells is recorded as “able to restore the nucleotide status”.

Source of the values: patent US20080146579A1, “TREATMENT OF PATIENTS WITH CHRONIC PULMONARY DISEASES AND NUTRITIONAL COMPOSITIONS THEREFORE” (N.V. Nutricia, priority 2006, published 2008).
